Assay results from publication PMC5094908 (Journal of applied toxicology : JAT, 2016).
Like-named read-outs stand apart in the source and are kept apart here.

Tests used:
[1] = system: HEK293, SH-SY5Y, SK-N-SH, or N2a; settings: cited from earlier work
[2] = system: LUHMES and dLUHMES cells
[3] = system: Caspase 3/7 activity in SH-SY5Y and dSH-SY5Y cells; assay: Caspase-Glo 3/7 luminescence assay, 24 h; type: cell-based
[4] = system: SH-SY5Y and dSH-SY5Y cells; assay: qPCR of apoptosis-pathway genes after 6 h toxicant treatment; type: cell-based, human; settings: MAP 12.5 µM, MALG 1.56 µM, MHG 1.56 µM, RSR 10 µM; for BIRC5 gene expression / BIRC3 gene expression: SH-SY5Y and dSH-SY5Y (either cell type); for BIRC5 gene expression / BAG3 expression: DTCM 10 µM; for BAG3 expression: both SH-SY5Y and dSH-SY5Y
[5] = system: SH-SY5Y, LUHMES, NSC, dSH-SY5Y, dLUHMES, dNSC
[6] = system: Caspase 3/7 activity in LUHMES and dLUHMES cells; assay: Caspase-Glo 3/7 luminescence assay, 24 h; type: cell-based, human
[7] = system: Caspase 3/7 activity in NSC and dNSC cells; type: cell-based, human; settings: 24 h, threshold […] above control
[8] = system: NSC and dNSC cells; settings: 24 h exposure, [ATP], 0.78 to 100 µM
[9] = system: LUHMES and dLUHMES cells; settings: 6 h
[10] = 24 h exposure, 0.78 to 100 µM, vs SH-SY5Y/dSH-SY5Y and NSC/dNSC

Compound: Sodium dichromate [CR2]
- In vitro neural selectivity: neural-derived cell lines 10-fold more sensitive (10-fold lower IC50) than the median of the other 9 cell lines [1]: SH-SY5Y ([Huang et al., 2008], [Xia et al., 2008])

Compound: COc1cc2c(c(OC)c1OC)-c1ccc(OC)c(=O)cc1[C@@H](NC(C)=O)CC2 [CLCH, Colchicine]
- cytotoxic sensitivity ([ATP] IC50) of LUHMES and/or dLUHMES relative to the other cell lines [2]: more sensitive than the other cell lines
- In vitro neural selectivity: neural-derived cell lines 10-fold more sensitive (10-fold lower IC50) than the median of the other 9 cell lines [1]: HEK293, SH-SY5Y, SK-N- SH, N2a ([Huang et al., 2008], [Xia et al., 2008])

Compound: C[C@H]1O[C@@H](O[C@H]2[C@@H](O)C[C@H](O[C@H]3[C@@H](O)C[C@H](O[C@H]4CC[C@@]5(C)[C@H](CC[C@@H]6[C@@H]5C[C@@H](O)[C@]5(C)[C@@H](C7=CC(=O)OC7)CC[C@]65O)C4)O[C@@H]3C)O[C@@H]2C)C[C@H](O)[C@@H]1O [DGX, Digoxin]
- cytotoxic sensitivity ([ATP] IC50) of LUHMES and/or dLUHMES relative to the other cell lines [2]: more sensitive than the other cell lines

Compound: Cc1c(O)cccc1C(=O)N[C@@H](CSc1ccccc1)[C@H](O)CN1C[C@H]2CCCC[C@H]2C[C@H]1C(=O)NC(C)(C)C [NLF, Nelfinavir]
- cytotoxic sensitivity ([ATP] IC50) of LUHMES and/or dLUHMES relative to the other cell lines [2]: more sensitive than the other cell lines
- In vitro neural selectivity: neural-derived cell lines 10-fold more sensitive (10-fold lower IC50) than the median of the other 9 cell lines [1]: SH-SY5Y ([Huang et al., 2008], [Xia et al., 2008])

Compound: CN(C)c1ccc(C(=C2C=CC(=[N+](C)C)C=C2)c2ccccc2)cc1.CN(C)c1ccc(C(=C2C=CC(=[N+](C)C)C=C2)c2ccccc2)cc1.O=C(O)C(=O)O.O=C([O-])C(=O)O.O=C([O-])C(=O)O [MALG, Malachite green oxalate]
- peak Caspase 3/7 activities, ranking among compounds [3]: highest activities
- BIRC5 gene expression [4]: down-regulation
- BIRC3 gene expression [4]: down-regulation
- BAG3 expression [4]: increased expression
- cytotoxic sensitivity of LUHMES, dLUHMES, NSC and dNSC compared with each other [5]: comparable sensitivity

Compound: O=c1c(-c2ccc(O)cc2)coc2cc(O)cc(O)c12 [GEN, Genistein]
- increase of Caspase 3/7 activity in dLUHMES ([6]; dLUHMES, 24 h, threshold […] above control): but not dLUHMES

Compound: NCCc1cc(O)c(O)cc1O [6HD, 6-hydroxydopamine]
- peak Caspase 3/7 activities, ranking among compounds [3]: highest activities
- increase of Caspase 3/7 activity in dNSC [7]: but not dNSC
- cytotoxic sensitivity ([ATP] IC50) of LUHMES and/or dLUHMES relative to the other cell lines [2, 10]: more sensitive than the other cell lines
- relative cytotoxic sensitivity of LUHMES versus dLUHMES cells ([2]; 24 h exposure, [ATP], 0.78 to 100 µM): dLUHMES cells were markedly more sensitive than LUHMES cells
- relative cytotoxic sensitivity of NSC versus dNSC [8]: NSC more sensitive than dNSC
- expression of a series of apoptosis-related genes ([9]; LUHMES, 6HD 1 µM): not observed
- expression of BCL2A1 and IL10 ([9]; dLUHMES, 6HD 1 µM): increased expression
- expression of a series of apoptosis-related genes ([9]; dLUHMES, 6HD 1 µM): increased expression

Compound: [CH3][Hg+] [MHG, Methyl mercury (II)]
- BIRC5 gene expression [4]: down-regulation
- BIRC3 gene expression [4]: down-regulation
- BAG3 expression [4]: increased expression

Compound: Tunicamycin [TUNC]
- cytotoxic sensitivity ([ATP] IC50) of LUHMES and/or dLUHMES relative to the other cell lines [2, 10]: more sensitive than the other cell lines

Compound: Aflatoxin B1
- increase of Caspase 3/7 activity in dLUHMES [6]: but not dLUHMES
- cytotoxic sensitivity ([ATP] IC50) of LUHMES and/or dLUHMES relative to the other cell lines [2]: more sensitive than the other cell lines
- relative cytotoxic sensitivity of LUHMES versus dLUHMES cells [2]: LUHMES cells were more sensitive than dLUHMES cells

Compound: c1cc(OCC2CO2)cc(OCC2CO2)c1 (centres unmarked) [RSR, Resorcinol diglycidyl ether]
- peak Caspase 3/7 activities, ranking among compounds [3]: highest activities
- BIRC5 gene expression [4]: did not respond detectably
- BIRC3 gene expression [4]: did not respond detectably
- BAG3 expression [4]: weakly
- cytotoxic sensitivity ([ATP] IC50) of LUHMES and/or dLUHMES relative to the other cell lines [2, 10]: more sensitive than the other cell lines
- relative cytotoxic sensitivity of NSC versus dNSC [8]: the converse was true
- cytotoxicity seen in samples treated for qPCR ([9]; LUHMES, 1.56 µM RSR, samples lost): excessive cytotoxicity
- In vitro neural selectivity: neural-derived cell lines 10-fold more sensitive (10-fold lower IC50) than the median of the other 9 cell lines [1]: SH-SY5Y ([Huang et al., 2008], [Xia et al., 2008])

Compound: CCCCCCCCn1sccc1=O [OTZ, 2-octyl-4-isothiazolin-3-one]
- cytotoxic sensitivity ([ATP] IC50) of LUHMES and/or dLUHMES relative to the other cell lines [2]: more sensitive than the other cell lines
- relative cytotoxic sensitivity of NSC versus dNSC [8]: NSC more sensitive than dNSC
- In vitro neural selectivity: neural-derived cell lines 10-fold more sensitive (10-fold lower IC50) than the median of the other 9 cell lines [1]: SH-SY5Y ([Huang et al., 2008], [Xia et al., 2008])
